This note sets out measurements from ChEMBL document CHEMBL1909046, “DrugMatrix in vitro pharmacology data”.

What is called IC50 is the concentration that gives 50% inhibition. Broadly, the Ki is a dissociation constant, usually derived from enzyme kinetics or from competition with a known ligand.

Assay [1] concerns the target T1, Cholecystokinin receptor type A (Homo sapiens, UniProt P32238). Note: in other assays of this panel Not Active means under 50% inhibition at 10 µM.
T1 sequence (P32238 whole entry): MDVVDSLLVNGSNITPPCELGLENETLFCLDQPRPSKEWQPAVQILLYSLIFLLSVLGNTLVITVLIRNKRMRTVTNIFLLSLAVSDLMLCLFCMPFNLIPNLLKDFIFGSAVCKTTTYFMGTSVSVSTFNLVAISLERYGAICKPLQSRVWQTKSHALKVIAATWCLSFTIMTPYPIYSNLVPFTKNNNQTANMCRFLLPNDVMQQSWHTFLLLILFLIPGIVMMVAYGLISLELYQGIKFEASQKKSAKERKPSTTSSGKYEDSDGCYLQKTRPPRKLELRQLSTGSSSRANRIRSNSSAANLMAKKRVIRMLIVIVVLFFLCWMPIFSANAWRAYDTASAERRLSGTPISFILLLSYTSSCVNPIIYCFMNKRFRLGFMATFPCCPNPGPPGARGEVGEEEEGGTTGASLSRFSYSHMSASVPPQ
It is filed as cell membranes, Membrane. The note with it: 1321-n1.

The next assay concerns the target Melanocortin receptor 3 (Homo sapiens, UniProt P41968). Format: cell membranes, Membrane. The note with it: hek293. Note: in other assays of this panel Not Active means under 50% inhibition at 10 µM.
Assay [2] is described as follows: DRUGMATRIX: Imidazoline I2, Central radioligand binding (ligand: [3H] Idazoxan). Format: cell membranes, Rattus norvegicus, Wistar, Cerebral cortex, Membrane. The following applies: Not Active = under 50% inhibition at 10 µM.
The target in assay [3] is T2, Alpha-2C adrenergic receptor (Homo sapiens, UniProt P18825).
T2 sequence (P18825 whole entry): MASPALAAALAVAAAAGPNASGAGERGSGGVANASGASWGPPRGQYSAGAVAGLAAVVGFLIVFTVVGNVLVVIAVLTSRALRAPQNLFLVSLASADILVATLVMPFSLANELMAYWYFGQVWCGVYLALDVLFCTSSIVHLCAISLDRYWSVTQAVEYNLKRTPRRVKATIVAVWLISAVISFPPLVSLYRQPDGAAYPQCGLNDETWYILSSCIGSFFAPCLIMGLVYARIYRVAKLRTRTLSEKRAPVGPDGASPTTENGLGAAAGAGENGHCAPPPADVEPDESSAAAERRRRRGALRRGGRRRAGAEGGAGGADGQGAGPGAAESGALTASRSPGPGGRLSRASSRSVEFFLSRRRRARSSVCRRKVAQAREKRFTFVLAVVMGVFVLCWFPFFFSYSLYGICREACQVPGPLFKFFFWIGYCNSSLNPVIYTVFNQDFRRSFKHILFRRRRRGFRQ
Description: DRUGMATRIX: Adrenergic Alpha-2C radioligand binding (ligand: [3H] MK-912). It is filed as cell membranes, Sf9, Membrane.

The next assay concerns the target Carbonic anhydrase 2 (Homo sapiens, UniProt P00918). Description: DRUGMATRIX: Carbonic Anhydrase II enzyme inhibition (substrate: 4-Nitrophenyl acetate (4-NPA)). It is filed as tissue-based, Erythrocyte. The note with it: erythrocyte; Not Active = under 50% inhibition at 10 µM.
Assay [4] has as its target T3, Neuropeptide Y receptor type 1 (Homo sapiens, UniProt P25929). Note: in other assays of this panel Not Active means under 50% inhibition at 10 µM.
T3 sequence (P25929 whole entry): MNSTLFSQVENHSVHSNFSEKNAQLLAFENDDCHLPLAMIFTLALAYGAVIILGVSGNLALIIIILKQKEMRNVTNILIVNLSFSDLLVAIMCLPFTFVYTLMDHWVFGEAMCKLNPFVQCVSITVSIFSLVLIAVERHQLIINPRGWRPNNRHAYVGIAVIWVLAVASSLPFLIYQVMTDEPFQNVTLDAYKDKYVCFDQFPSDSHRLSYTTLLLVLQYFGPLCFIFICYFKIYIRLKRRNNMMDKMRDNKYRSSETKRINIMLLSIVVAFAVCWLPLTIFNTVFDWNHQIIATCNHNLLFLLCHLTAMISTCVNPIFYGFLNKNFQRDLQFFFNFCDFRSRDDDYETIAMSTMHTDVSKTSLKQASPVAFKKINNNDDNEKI
Format: cell membranes, Membrane. The note with it: sk-n-mc.

Another assay has as its target T4, Calcitonin receptor (Homo sapiens, UniProt P30988). Note: in other assays of this panel Not Active means under 50% inhibition at 10 µM.
T4 sequence (P30988 whole entry): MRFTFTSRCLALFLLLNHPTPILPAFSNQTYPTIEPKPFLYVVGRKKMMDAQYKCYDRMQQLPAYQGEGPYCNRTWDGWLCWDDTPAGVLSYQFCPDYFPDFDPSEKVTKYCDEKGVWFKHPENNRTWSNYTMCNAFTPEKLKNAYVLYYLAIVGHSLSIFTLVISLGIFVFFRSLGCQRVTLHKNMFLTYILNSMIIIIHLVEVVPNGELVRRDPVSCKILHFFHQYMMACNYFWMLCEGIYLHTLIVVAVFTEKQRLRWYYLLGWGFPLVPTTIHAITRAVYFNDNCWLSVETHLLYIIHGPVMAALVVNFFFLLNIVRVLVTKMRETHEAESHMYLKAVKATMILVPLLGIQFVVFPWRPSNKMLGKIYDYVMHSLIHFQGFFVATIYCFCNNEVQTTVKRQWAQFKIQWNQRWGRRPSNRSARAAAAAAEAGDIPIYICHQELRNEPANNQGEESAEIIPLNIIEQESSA
It is filed as cell membranes, Membrane. The following applies: t47d.

A further assay concerns the target Adenosine receptor A2a (Homo sapiens, UniProt P29274). Description: DRUGMATRIX: Adenosine A2A radioligand binding (ligand: […]). Format: cell membranes, HEK293, Membrane. The following applies: hek293; Not Active = under 50% inhibition at 10 µM.

Where a SMILES comes first, the peptide text is derived from it. Bridges are numbered along the chain shown (N, C = ends). [ ]: non-standard residue; d: D form. The star is where a group is joined. Threoninol(2S,3R) = C[C@@H](O)[C@H](CO)N*

Chain of Melanocortin receptor 3 (P41968 whole entry): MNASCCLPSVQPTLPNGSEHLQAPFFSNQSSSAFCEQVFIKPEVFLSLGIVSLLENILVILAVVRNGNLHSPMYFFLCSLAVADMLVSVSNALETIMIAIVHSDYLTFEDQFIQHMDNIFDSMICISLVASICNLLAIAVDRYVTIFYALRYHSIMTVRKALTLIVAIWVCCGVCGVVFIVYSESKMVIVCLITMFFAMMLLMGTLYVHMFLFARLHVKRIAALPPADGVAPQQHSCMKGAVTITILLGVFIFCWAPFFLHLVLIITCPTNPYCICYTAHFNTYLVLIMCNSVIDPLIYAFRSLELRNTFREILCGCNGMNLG
Chain of Adenosine receptor A2a (P29274 whole entry): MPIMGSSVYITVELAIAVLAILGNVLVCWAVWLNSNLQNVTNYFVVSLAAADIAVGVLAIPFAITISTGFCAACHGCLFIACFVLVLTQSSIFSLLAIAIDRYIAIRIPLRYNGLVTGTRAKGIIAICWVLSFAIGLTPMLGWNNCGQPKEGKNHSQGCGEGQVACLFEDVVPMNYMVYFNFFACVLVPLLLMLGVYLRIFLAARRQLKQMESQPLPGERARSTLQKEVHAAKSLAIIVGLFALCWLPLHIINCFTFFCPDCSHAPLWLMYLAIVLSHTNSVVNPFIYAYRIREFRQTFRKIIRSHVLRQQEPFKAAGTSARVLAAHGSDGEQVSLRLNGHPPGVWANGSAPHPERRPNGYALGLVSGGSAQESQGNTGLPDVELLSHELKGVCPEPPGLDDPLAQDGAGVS

For the molecule `COc1ccccc1C(=O)N1CCC(Cc2ccccc2)CC1`, the IC50 entry (in assay [1]; at Melanocortin receptor 3; in assay [2]; in assay [3] (sf9); on Carbonic anhydrase 2; in assay [4]) was “Not Active” each time. Also, the IC50 entry at Calcitonin receptor and on Adenosine receptor A2a was “Not Active” in each case. Moreover, the Ki entry in assay [2] was “Not Active”.

Take `Cc1ccccc1C(=O)N1CCC(Cc2ccccc2)CC1`: the IC50 result (in assay [1]; against Melanocortin receptor 3; in assay [2]; in assay [3] (sf9); at Carbonic anhydrase 2; in assay [4]) was “Not Active” in each case. Besides, the IC50 result on Calcitonin receptor and at Adenosine receptor A2a was “Not Active” in each case. The inhibition constant Ki result in assay [2] is listed as “Not Active”.

For `O=C1CC[C@H](N2C(=O)c3ccccc3C2=O)C(=O)N1`, the IC50 result (in assay [1]; against Melanocortin receptor 3; in assay [2]; in assay [3] (sf9); at Carbonic anhydrase 2; in assay [4]) was “Not Active” in each case. Moreover, the IC50 result at Calcitonin receptor and on Adenosine receptor A2a was “Not Active” throughout. For the same molecule, the Ki entry in assay [2] is “Not Active”.

With `N=C(Nc1ccccc1)Nc1ccccc1`, the IC50 entry (in assay [1]; at Melanocortin receptor 3; in assay [2]; in assay [3] (sf9); on Carbonic anhydrase 2; in assay [4]) was “Not Active” throughout. Besides, the IC50 result on Calcitonin receptor and on Adenosine receptor A2a was “Not Active” in each case. Besides, the Ki result in assay [2] is “Not Active”.

As to `C[C@@H](O)[C@H](CO)NC(=O)[C@@H]1CSSC[C@H](NC(=O)[C@H](N)Cc2ccccc2)C(=O)N[C@@H](Cc2ccccc2)C(=O)N[C@H](Cc2c[nH]c3ccccc23)C(=O)N[C@@H](CCCCN)C(=O)N[C@@H]([C@@H](C)O)C(=O)N1` (H-[dF]CF[dW]KTC-{Threoninol(2S,3R)}; disulfide 2-7), the IC50 entry (in assay [1]; at Melanocortin receptor 3; in assay [2]; in assay [3] (sf9); against Carbonic anhydrase 2; in assay [4]) was “Not Active” each time. For the same molecule, the 50% inhibitory concentration (IC50) result on Calcitonin receptor and on Adenosine receptor A2a was “Not Active” each time. Moreover, in assay [2], the Ki entry is “Not Active”.

Take `S=C=Nc1cccc2ccccc12` [1-NAPHTHYLISOTHIOCYANATE]: the IC50 entry in assay [1] was “Not Active”; against Melanocortin receptor 3 it was “Not Active”; in assay [2], “Not Active”; in assay [3] (read-out: IC50) it was 54.5 µM; against Carbonic anhydrase 2, “Not Active”; in assay [4] it was “Not Active”. Besides, the IC50 result on Calcitonin receptor and on Adenosine receptor A2a was “Not Active” throughout. Also, the Ki result in assay [2] was “Not Active”; in assay [3] (read-out: Ki), 7.92 µM.

In the case of `C[C@](O)(CS(=O)(=O)c1ccc(F)cc1)C(=O)Nc1ccc(C#N)c(C(F)(F)F)c1` [(R)-BICALUTAMIDE], the half-maximal inhibitory concentration (IC50) entry (in assay [1]; against Melanocortin receptor 3; in assay [2]; in assay [3] (sf9); against Carbonic anhydrase 2; in assay [4]) was “Not Active” throughout. The IC50 entry on Calcitonin receptor and on Adenosine receptor A2a was “Not Active” each time. Moreover, the Ki entry in assay [2] was “Not Active”.

Turning to `CCCC(=O)Nc1ccc(OCC(O)CNC(C)C)c(C(C)=O)c1` (configuration not stated) [ACEBUTOLOL], the IC50 result (in assay [1]; against Melanocortin receptor 3; in assay [2]; in assay [3] (sf9); on Carbonic anhydrase 2; in assay [4]) was “Not Active” in each case. Besides, the half-maximal inhibitory concentration (IC50) result at Calcitonin receptor and on Adenosine receptor A2a was “Not Active” throughout. Moreover, the Ki entry in assay [2] is “Not Active”.

As for `CC(=O)Nc1ccc(O)cc1` [ACETAMINOPHEN], the IC50 entry (in assay [1]; against Melanocortin receptor 3; in assay [2]; in assay [3] (sf9); at Carbonic anhydrase 2; in assay [4]) was “Not Active” throughout. Moreover, the IC50 result at Calcitonin receptor and on Adenosine receptor A2a was “Not Active” each time. For the same molecule, the Ki result in assay [2] is “Not Active”.
